Measurements as given in the supplement of paper PMC11451515.

What was measured:
Details in all cases: 48 h
P12-Ichikawa [1] = test: AUC of viability dose-response curve (% viability x log10 dose units); higher = less sensitive
Method in brief: (§1)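 Leukemia cells adapted to each medium were seeded in 1536-well plates (500 or 1000 cells/well) and given library compounds in DMSO for 48 h at 37°C. The 11 threefold doses spanned 47 μM to 0.79 nM, and CellTiter-Glo One luminescence was normalised per plate to DMSO and cell-free wells before four-parameter log-logistic fitting on log10 dose. Area under the curve was integrated with the trapezoidal rule, scaling curves above full viability and removing curves that failed quality control.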

SEM cells [2] = test: as above
Method in brief: as §1

NOMO1 [3] = test: as above
Method in brief: as §1

P12-Ichikawa [4] = test: cell viability relative to DMSO control; higher = less cytotoxic
Method in brief: (§2)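 NOMO1 or SEM (500 cells/well) or P12-Ichikawa (1000 cells/well) leukemia cells were adapted for at least four passages in each medium. They were seeded in 1536-well plates (5 μl) and pin-dosed with library compounds in DMSO over an 11-point threefold series, 47 μM to 0.79 nM. CellTiter-Glo One luminescence was read after 48 h at 37°C. Viability is the per-plate percentage relative to DMSO wells, with cell-free wells as background.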

SEM cells [5] = test: as above
Method in brief: as §2

NOMO1 [6] = test: as above
Method in brief: as §2

Nc1ccc([S+](=O)([O-])Nc2ccccn2)cc1
AUC of viability dose-response curve
Details | NOMO1 [3] | P12-Ichikawa [1] | SEM cells [2]
HPLM + 10% dialyzed FBS | 470 | 467 | 438
RPMI 5 mM glucose + 10% FBS | 467 | 439 | 468
RPMI 5 mM glucose + 10% dialyzed FBS | 464 | 445 | 448

cell viability [%]
Details | NOMO1 [6] | P12-Ichikawa [4] | SEM cells [5]
HPLM + 10% dialyzed FBS, 0.000781 µM | 122 | 117 | 77.7
HPLM + 10% dialyzed FBS, 0.00234 µM | 106 | 116 | 91.7
HPLM + 10% dialyzed FBS, 0.00702 µM | 122 | 115 | 91.3
HPLM + 10% dialyzed FBS, 0.0211 µM | 117 | 123 | 93.7
HPLM + 10% dialyzed FBS, 0.0632 µM | 106 | 117 | 82.7
HPLM + 10% dialyzed FBS, 0.19 µM | 115 | 117 | 91
HPLM + 10% dialyzed FBS, 0.569 µM | 140 | 130 | 93.6
HPLM + 10% dialyzed FBS, 1.71 µM | 133 | 119 | 98.8
HPLM + 10% dialyzed FBS, 5.12 µM | 116 | 115 | 88.5
HPLM + 10% dialyzed FBS, 15.4 µM | 124 | 120 | 97
HPLM + 10% dialyzed FBS, 46.1 µM | 87.6 | 125 | 96.9
RPMI 5 mM glucose + 10% FBS, 0.000781 µM | 110 | 105 | 100
RPMI 5 mM glucose + 10% FBS, 0.00234 µM | 106 | 105 | 104
RPMI 5 mM glucose + 10% FBS, 0.00702 µM | 111 | 113 | 115
RPMI 5 mM glucose + 10% FBS, 0.0211 µM | 113 | 117 | 118
RPMI 5 mM glucose + 10% FBS, 0.0632 µM | 121 | 118 | 112
RPMI 5 mM glucose + 10% FBS, 0.19 µM | 125 | 112 | 108
RPMI 5 mM glucose + 10% FBS, 0.569 µM | 112 | 121 | 122
RPMI 5 mM glucose + 10% FBS, 1.71 µM | 118 | 116 | 119
RPMI 5 mM glucose + 10% FBS, 5.12 µM | 126 | 127 | 124
RPMI 5 mM glucose + 10% FBS, 15.4 µM | 108 | 123 | 109
RPMI 5 mM glucose + 10% FBS, 46.1 µM | 79.8 | 127 | 111
RPMI 5 mM glucose + 10% dialyzed FBS, 0.000781 µM | 120 | 113 | 98.6
RPMI 5 mM glucose + 10% dialyzed FBS, 0.00234 µM | 121 | 117 | 109
RPMI 5 mM glucose + 10% dialyzed FBS, 0.00702 µM | 114 | 116 | 100
RPMI 5 mM glucose + 10% dialyzed FBS, 0.0211 µM | 109 | 113 | 101
RPMI 5 mM glucose + 10% dialyzed FBS, 0.0632 µM | 112 | 119 | 113
RPMI 5 mM glucose + 10% dialyzed FBS, 0.19 µM | 121 | 115 | 101
RPMI 5 mM glucose + 10% dialyzed FBS, 0.569 µM | 122 | 125 | 99
RPMI 5 mM glucose + 10% dialyzed FBS, 1.71 µM | 130 | 119 | 108
RPMI 5 mM glucose + 10% dialyzed FBS, 5.12 µM | 109 | 124 | 121
RPMI 5 mM glucose + 10% dialyzed FBS, 15.4 µM | 115 | 131 | 103
RPMI 5 mM glucose + 10% dialyzed FBS, 46.1 µM | 58.1 | 127 | 115

CCC(c1ccc(O)cc1)C(CC)c1ccc(O)cc1 (stereo unspecified)
AUC of viability dose-response curve
Details | NOMO1 [3] | P12-Ichikawa [1] | SEM cells [2]
HPLM + 10% dialyzed FBS | 428 | 452 | 459
RPMI 5 mM glucose + 10% FBS | 448 | 464 | 457
RPMI 5 mM glucose + 10% dialyzed FBS | 463 | 466 | 466

CN[C@@H]1CN(C[C@H]1OC)C2=NC3=C(C=C2)C(=O)C(=C\N3C4=NC=CS4)/C(O)=O
AUC of viability dose-response curve
Details | NOMO1 [3] | P12-Ichikawa [1] | SEM cells [2]
HPLM + 10% dialyzed FBS | 454 | 426 | 396
RPMI 5 mM glucose + 10% FBS | 455 | 386 | 347
RPMI 5 mM glucose + 10% dialyzed FBS | 451 | 389 | 363
